Measured values from PMC7307922 (Journal of Medicinal Chemistry, 2020).

What was measured:
in vivo = settings: male, BALB/c, mouse
Description: The study was performed by Bienta (www.bienta.net). Study design, animal selection, handling, and treatment were all in accordance with the Enamine PK study protocols and Institutional Animal Care and Use Guidelines. Animal treatment and plasma samples preparation were conducted by the Animal Laboratory personnel at Enamine/Bienta. […] The animals were randomly assigned to the treatment groups before the pharmacokinetic study; all animals were fasted for 4 h before dosing. […] Each of the time point treatment group included four animals. There was also a control group of two animals. […] Dosing volumes of compounds or vehicle was 5 mL/kg. Mice were injected iv with 2,2,2-tribromoethanol at the dose of 150 mg/kg prior to drawing the blood. Blood collection was performed from the orbital sinus in microtainers containing K2EDTA. Animals were sacrificed by cervical dislocation after the blood sample collection. All samples were immediately processed, flash-frozen, and stored at −70 °C until subsequent analysis. […] After mixing by pipetting and centrifuging for 4 min at 6000 rpm, 0.5–1 μL of each supernatant was analyzed by HPLC-MS/MS on an API 3000 PE instrument.

hFFA3 [1] = molecular target: T1, hFFA3 (Homo sapiens, UniProt O14843); assay: cell-based; settings: for Emax: HEK293, read-out: cAMP Emax; for cAMP pEC50 / EC50: hFFA3; for cAMP pEC50: compound alone, mean of ≥3 independent experiments ± standard error; for EC50: read-out: EC50 (cAMP assay)
T1 sequence (O14843 1-346): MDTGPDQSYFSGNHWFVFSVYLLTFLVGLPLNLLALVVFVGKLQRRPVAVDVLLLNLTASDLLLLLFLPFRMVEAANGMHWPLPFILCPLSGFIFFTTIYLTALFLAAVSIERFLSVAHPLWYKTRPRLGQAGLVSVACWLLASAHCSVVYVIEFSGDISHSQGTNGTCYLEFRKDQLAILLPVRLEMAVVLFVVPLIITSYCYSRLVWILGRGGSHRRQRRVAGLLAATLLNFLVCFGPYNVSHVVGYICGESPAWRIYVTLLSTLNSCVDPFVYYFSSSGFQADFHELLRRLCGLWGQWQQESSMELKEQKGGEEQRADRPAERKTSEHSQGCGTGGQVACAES
Outline: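 HEK293 Flp-In T-REx cells stably carrying FFA3-eYFP, expression induced overnight with doxycycline, 3000 cells/well; compounds co-incubated 1 h to inhibit 0.3 μM forskolin-induced cAMP, read with HTRF cAMP kit.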

mFFA3 = molecular target: T2, mFFA3 (Mus musculus, UniProt Q3UFD7); assay: cAMP assay, mFFA3; format: cell-based; design: expressed in transfected cells; host or cells: HEK293 Flp-In T-REx, doxycycline-induced; settings: for loss of potency from human to rodent species: hFFA3 vs rFFA3 and mFFA3, cAMP
T2 sequence (Q3UFD7 1-319): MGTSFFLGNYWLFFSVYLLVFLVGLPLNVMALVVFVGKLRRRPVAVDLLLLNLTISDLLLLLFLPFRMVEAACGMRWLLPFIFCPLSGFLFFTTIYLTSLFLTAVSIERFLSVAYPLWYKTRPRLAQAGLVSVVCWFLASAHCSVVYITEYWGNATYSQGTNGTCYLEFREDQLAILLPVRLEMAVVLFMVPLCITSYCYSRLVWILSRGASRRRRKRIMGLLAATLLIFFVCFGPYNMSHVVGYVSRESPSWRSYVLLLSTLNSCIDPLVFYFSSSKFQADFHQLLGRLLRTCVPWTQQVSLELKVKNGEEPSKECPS
Description: (§1) With several compounds with improved properties in hand, we wished to investigate the suitability of the compounds as tools for in vivo studies in rodents. Because of the moderate potency and low solubility associated with this series, it has been presumed that they are poorly suited as in vivo tools.
(§2) HEK293 Flp-In T-Rex cells stably transfected with FFA3-eYFP receptors were incubated overnight with doxycycline to induce expression, then harvested, and cryopreserved. On the day of each experiment, cells were thawed and resuspended in stimulation buffer. Assays were carried out using a 384-well plate format with 3000 cells/well using the CisBio cAMP GS dynamic kit as per manufacturer’s protocol. Compounds were tested for the ability to inhibit 0.3 μM forskolin-induced cAMP production after co-incubation for 1 h. Reactions were measured using a PHERAstar FS plate reader (BMGLabtech, Aylesbury, UK).

rFFA3 = molecular target: T3, rFFA3 (Rattus norvegicus, UniProt B2GV46); assay: cAMP assay, rFFA3; format: cell-based
T3 construct: expressed in transfected cells; host or cells: HEK293 Flp-In T-REx, doxycycline-induced
T3 sequence (B2GV46 1-319): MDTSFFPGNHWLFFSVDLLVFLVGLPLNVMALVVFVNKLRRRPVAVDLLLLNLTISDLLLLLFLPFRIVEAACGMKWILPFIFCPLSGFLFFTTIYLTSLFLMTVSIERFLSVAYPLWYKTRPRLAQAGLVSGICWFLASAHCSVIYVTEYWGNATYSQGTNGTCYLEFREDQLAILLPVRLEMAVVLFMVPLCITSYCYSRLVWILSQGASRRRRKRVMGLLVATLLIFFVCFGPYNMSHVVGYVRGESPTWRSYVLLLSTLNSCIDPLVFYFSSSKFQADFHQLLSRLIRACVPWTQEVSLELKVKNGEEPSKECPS
Description: as §1, §2

hFFA3 [2] = molecular target: T1, hFFA3; assay: biochemical; settings: for GTPγS pEC50: hFFA3, mean of ≥3 independent experiments ± standard error; for Emax: read-out: GTPγS Emax
Description: The ligands were initially screened in a human FFA3-dependent [^35S]GTPγS binding assay as this assay reflects receptor-mediated activation of Gi/o proteins and is known to generally correlate well with ligand affinity.[30] Analogues of particular interest were tested further in a cAMP inhibition assay as this is an important downstream effect of Gi-activation. […] It is furthermore performed in whole cells, is more downstream, includes G protein signal amplification, and therefore better reflects a more natural ligand–receptor response.
Membranes were isolated from Flp-In T-REx HEK293 cells treated with 100 ng/mL doxycycline to induce receptor expression. Cells were washed with ice-cold phosphate-buffered saline and removed from dishes by scraping before being centrifuged for 5 min at 4 °C, 3000 rpm. Pellets were resuspended in TE buffer (75 mM Tris–HCl, 5 mM EDTA; pH 7.5) with the addition of a protease inhibitor mixture (Roche Applied Science, West Sussex, UK). This was then homogenized with a 5 mL hand-held homogenizer and subsequently centrifuged at 1500 rpm for 5 min at 4 °C, from which the supernatant was collected and further centrifuged at 50 000 rpm for 30 min at 4 °C. The resulting pellet was resuspended in TE buffer, and the protein content was measured using a BCA protein assay kit (Pierce, Fisher Scientific, Loughborough, UK).
Reactions were initiated with the addition of [^35S]GTPγS at 50 nCi per tube; reactions were terminated after 1 h of incubation at 25 °C by rapid filtration through GF/C glass filters using a 24-well Brandel cell harvester (Alpha Biotech, Glasgow, UK). Unbound radioligand was removed from filters by washing three times with ice-cold wash buffer (50 mM Tris–HCl, pH 7.4, and 10 mM MgCl2), and [^35S]GTPγS binding was determined by liquid scintillation spectrometry.

Structure (SMILES) | Vd at 24 h (in vivo; iv, 5 mg/kg) [L/kg] | clearance at 24 h (in vivo; iv, 5 mg/kg) [mL/min/kg] | half-life at 24 h (in vivo; iv, 5 mg/kg) [min] | AUC(0-inf) at 24 h (in vivo; po, 10 mg/kg) [ng·h/mL] | Cmax at 24 h (in vivo; po, 10 mg/kg) [ng/mL] | Tmax at 24 h (in vivo; po, 10 mg/kg) [min] | bioavailability at 24 h (in vivo; po, 10 mg/kg) [%] | half-life at 24 h (in vivo; po, 10 mg/kg) [min] | Emax (hFFA3 [1]) [%] | cAMP pEC50 (hFFA3 [1]) | EC50 (hFFA3 [1]) [nM] | loss of potency from human to rodent species (mFFA3) | cAMP pEC50 (mFFA3) (mFFA3) | cAMP pEC50 (rFFA3) (rFFA3) | GTPγS pEC50 (hFFA3 [2]) | Emax (hFFA3 [2]) [%] | half-life (in vivo; iv, 5 mg/kg) [min] | higher potency than 3-furyl derivative 2 (hFFA3 [2]; GTPγS assay) | PAM pEC50 (hFFA3 [1]; cAMP assay in the presence of 1 μM propionate) | allosteric effect on propionate response (hFFA3 [1]; cAMP assay together with propionate (56: 30 μM compound; 62, 63: 1 μM propionate))
CCCC1C(C(=O)Nc2cc(Cl)ccc2Cl)=C(C)NC2=C1C(=O)CCC2 (stereo not shown) [Compound 57, N-(2,5-Dichlorophenyl)-2-methyl-5-oxo-4-propyl-1,4,5,6,7,8-hexahydroquinoline-3-carboxamide] | 1.15 | 70.3 | 11.4 | 563 | 561 | 30 | 36 | 63.5 | 113 | 6.84 ± 0.02 | 145 | – | – | – | – | – | – | – | – | –
CC1=C(C(=O)Nc2cc(Cl)ccc2Cl)C(c2ccco2)C2=C(CCCC2=O)N1 (stereo not shown) [Compound 16, reference compound] | 0.629 | 19.6 | 22.3 | 7050 | 5740 | 30 | 88 | 60.8 | 106 | 6.89 ± 0.02 | – | 3–10 fold | 5.88 ± 0.05 | 6.34 ± 0.04 | 5.74 ± 0.11 | 120 | 20 | – | – | –
CC1=C(C(=O)Nc2ccccc2C)C(c2ccco2)C2=C(CCCC2=O)N1 (stereo not shown) [Compound 1, 4-(Furan-2-yl)-2-methyl-5-oxo-N-(o-tolyl)-1,4,5,6,7,8-hexahydroquinoline-3-carboxamide, reference compound] | 0.759 | 8.45 | 62.2 | 14400 | 7470 | 15 | 73 | 89.7 | 105 | 6.28 ± 0.06 | – | 3–10 fold | 5.42 ± 0.04 | 5.87 ± 0.07 | 5.65 ± 0.07 | 100 | – | approximately 2 fold | 6.27 ± 0.15 | –
CC1=C(C(=O)Nc2cc(Cl)ccc2Cl)C(C2CCCC2)C2=C(CCCC2=O)N1 (stereo not shown) [Compound 63, 4-Cyclopentyl-N-(2,5-dichlorophenyl)-2-methyl-5-oxo-1,4,5,6,7,8-hexahydroquinoline-3-carboxamide] | 1.11 | 20.3 | 37.8 | 5420 | 3800 | 15 | 66 | 51.8 | 99 | 6.79 ± 0.05 | 162 | – | 5.96 ± 0.04 | 6.39 ± 0.03 | – | – | – | – | – | did not reveal significant PAM effects
